Measured values published in PubChem BioAssay (NCI).
Several values for one entry are separate records, joined by “and”; a condition that tells them apart may be missing. Equal values may be shown once.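 Following 48 hours of exposure in 96-well plates, responses at five concentrations were used to interpolate endpoints linearly. Abbreviation: GI50, concentration required for 50% inhibition of growth. TGI marks complete inhibition of growth.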

Experiments:
Experiment in all cases: growth of human tumour cells (NCI), 48 h
NCI-H460 lung = test system: NCI-H460 lung
MDA-MB-435 = test system: MDA-MB-435
IGROV1 ovarian = test system: IGROV1 ovarian
CCRF-CEM leukemia = test system: CCRF-CEM leukemia
SK-MEL-2 melanoma = test system: SK-MEL-2 melanoma
NCI-H226 lung = test system: NCI-H226 lung
NCI/ADR-RES ovarian = test system: NCI/ADR-RES ovarian
HCC-2998 colon = test system: HCC-2998 colon
MALME-3M melanoma = test system: MALME-3M melanoma
HL-60(TB) leukemia = test system: HL-60(TB) leukemia

Row | Compound | TGI (NCI-H460 lung) | TGI (MDA-MB-435) [µM] | TGI (IGROV1 ovarian) | TGI (CCRF-CEM leukemia) | TGI (SK-MEL-2 melanoma) | TGI (NCI-H226 lung) | TGI (NCI/ADR-RES ovarian) | TGI (HCC-2998 colon) | TGI (MALME-3M melanoma) | TGI (HL-60(TB) leukemia) | GI50 (NCI-H460 lung) | GI50 (IGROV1 ovarian) [µM] | GI50 (CCRF-CEM leukemia) | GI50 (SK-MEL-2 melanoma) [µM] | GI50 (NCI-H226 lung) [µM] | GI50 (HCC-2998 colon) [µM] | GI50 (MALME-3M melanoma) [µM] | GI50 (HL-60(TB) leukemia)
1 | c1ccc(N=C2SC3=Nc4cccc5cccc(c45)N3C2=Nc2ccccc2)cc1 | > 100 µM | > 100 | > 100 µM | > 100 µM | > 100 µM | > 100 µM | > 100 µM | > 100 µM | > 100 µM | > 100 µM |  |  |  |  |  |  |  | 
2 | O=c1[nH][nH]c(=O)n1Cc1ccccc1Cn1c(=O)[nH][nH]c1=O | > 100 µM | > 100 | > 100 µM | > 100 µM | > 100 µM | > 100 µM | > 100 µM |  | > 100 µM | > 100 µM |  |  |  |  |  |  |  | 
3 | CNC(=O)OCC1=C(COC(=O)NC)C(C)N(c2ccc(OC)cc2)C1 (stereo not drawn) | > 100 µM | > 100 | > 100 µM | > 100 µM | > 100 µM | 6.21 µM | > 100 µM |  | > 100 µM | 55.2 µM |  |  |  |  |  |  |  | 
4 | O=C(O)CN(CC(=O)O)C1CCCCC1N(CC(=O)O)CC(=O)NCCN=C=S (stereo not drawn) | > 100 µM | > 100 | > 100 µM | > 100 µM | > 100 µM | > 100 µM | > 100 µM | > 100 µM | > 100 µM | > 100 µM |  |  |  |  |  |  |  | 
5 | COc1ccc(C(OCC2OC(n3cc(C)c(=O)[nH]c3=O)CC2n2cc(Cn3cc(I)c(=O)[nH]c3=O)nn2)(c2ccccc2)c2ccccc2)cc1 (stereo not drawn) |  | > 100 | > 100 µM | > 100 µM | > 100 µM | > 100 µM | > 100 µM | > 100 µM | > 100 µM | 5.55 µM |  |  |  |  |  |  |  | 
6 | COc1cc(/C=C/C(=N\NS(=O)(=O)c2ccc(C)cc2)c2sc(NNC(C)=O)nc2C)ccc1O | > 100 µM | > 100 | > 100 µM | > 100 µM | > 100 µM | > 100 µM | > 100 µM | > 100 µM | > 100 µM | > 100 µM |  |  |  |  |  |  |  | 
7 | Cc1c2cnccc2c(C)c2c1c1ccccc1n2CCCN | 0.335 µM and 0.22 µM | 0.46 | 1.74 µM and 0.973 µM | 0.75 µM and 0.215 µM | 1.59 µM and 1.42 µM | 1.86 µM and 2.78 µM | 1.04 µM and 1.16 µM | 1.83 µM and 0.432 µM | 2.09 µM and 1.08 µM | 1.52 µM and 1.81 µM | 0.113 µM and 0.0472 µM | 0.198 | 0.0966 µM and 0.0188 µM | 0.348 | 1.18 | 0.23 | 0.313 | 0.527 µM and 0.414 µM
8 | Cc1ccsc1/C=N/Nc1ncccn1 |  | > 100 | > 100 µM | > 100 µM | > 100 µM | > 100 µM | > 100 µM | > 100 µM | > 100 µM | > 100 µM |  |  |  |  |  |  |  | 
9 | Oc1ccc(-c2nc(-c3cccnc3)c(-c3ccc(F)cc3)[nH]2)cc1 | 63.9 µM | 31.1 | 33.8 µM | 42.1 µM | 34.6 µM | 46.8 µM | 42.6 µM | 40.3 µM | 32.6 µM | 52 µM |  |  |  |  |  |  |  | 
10 | CC(C)CC(=O)OC[n+]1ccc(-c2c(COC(=O)NC(C)C)c(COC(=O)NC(C)C)c3n2CCC3)cc1 | > 100 µM | > 100 | > 100 µM | > 100 µM | > 100 µM | > 100 µM | > 100 µM | > 100 µM | > 100 µM | > 100 µM |  |  |  |  |  |  |  | 
11 | O=[N+]([O-])C(=C1NCCN1)/C(Cl)=C(\Cl)Br | > 100 µM | > 63.2 | > 100 µM | 28.5 µM | > 100 µM | > 100 µM | > 100 µM | > 100 µM | > 61.7 µM | 28.2 µM |  |  |  |  |  |  |  | 
12 | Cc1ccc(SCC(CSCCO)OCn2cnc3c2NC(N)=NC32OCCO2)cc1 (stereo not drawn) | > 100 µM | > 100 | > 100 µM | > 100 µM | > 100 µM |  | > 100 µM | > 100 µM | > 100 µM | > 100 µM |  |  |  |  |  |  |  | 
13 | O=C1OCC(O)=C1C(c1ccc(Cl)cc1)c1cc2c(cc1O)OCO2 (stereo not drawn) | > 100 µM | > 100 | > 100 µM | > 100 µM | > 100 µM | > 100 µM | > 100 µM | > 100 µM | > 100 µM | > 100 µM |  |  |  |  |  |  |  | 
14 | O=C1/C(=C/c2ccc(O)cc2)CC/C1=C\c1ccc(O)cc1 | > 100 µM | > 100 | > 100 µM | 6.74 µM | > 100 µM | > 100 µM | > 100 µM | > 100 µM | > 100 µM | 34.5 µM |  |  |  |  |  |  |  | 
15 | Nc1cccc2cc(Cl)cnc12 | > 100 µM | > 100 | > 100 µM | > 100 µM |  | > 100 µM | > 100 µM | > 100 µM | > 100 µM | > 100 µM |  |  |  |  |  |  |  | 
16 | COc1c(C)c(C/C=C(\C)CCCCO[Si](c2ccccc2)(c2ccccc2)C(C)(C)C)c(OC)c(OC)c1OC | 25 µM | > 46.4 | 42.2 µM | > 46.4 µM | > 100 µM | > 100 µM | 35.1 µM | > 46.4 µM | > 100 µM | > 100 µM |  |  |  |  |  |  |  | 
17 | C[C@@]12C[C@@H](c3ccccc3O1)N1CCCCSC1=N2 | > 100 µM | > 100 | > 100 µM | > 100 µM | > 100 µM | > 100 µM | > 100 µM | > 100 µM | > 100 µM | > 100 µM |  |  |  |  |  |  |  | 
18 | COc1ccc2c(=O)c(O)c(-c3ccc(OC)c(OC)c3)oc2c1 | > 100 µM | > 100 | > 100 µM | > 100 µM |  |  | 8.25 µM | > 100 µM | > 100 µM | 5.22 µM |  |  |  |  |  |  |  | 
19 | Clc1ccc(/C=C/c2nc3ccccc3s2)cc1Cl | > 100 µM | > 100 | > 100 µM | > 100 µM |  |  | > 100 µM | > 100 µM | > 100 µM | > 100 µM |  |  |  |  |  |  |  | 
